Data: patent US11957687B2 (REGENERON PHARMACEUTICALS, INC., priority 2019, dated 2024)

Tests used:
[1] = biological target: HSD17B10 (Homo sapiens (Human), UniProt Q99714); assay: HSD17B10 enzymatic blocking assay; format: biochemical; conditions: 25 μM Estradiol, 500 μM NAD; read-out: Inhibition of HSD17B10 IC50
Description: To screen compounds of the disclosure for their ability to block HSD17B10 function, an enzymatic blocking assay was performed. For the assay, HSD17B10 activity was measured by detecting NADH formation from oxidation of Estradiol using a NADH Glo luminescence assay (Promega, #Cat. No. G9062). Compounds of the disclosure were evaluated in a dose titration assay where the compounds were titrated at 10-point dose curve using an Echo-555 liquid handling dispenser. HSD17B10 (Seq. ID NO: 5, expressed in mammalian cells) was added at a final concentration of 31.25 ng/well in a buffer containing 0.2M Tris-HCl, pH 7.5, into a low volume white 384-well assay plate. Compounds were incubated with the enzyme for 30 minutes at room temperature. The assay reaction was then initiated by addition of 25 μM Estradiol substrate (Sigma, catalog #E2758-250MG, CAS: 50-28-2) and 500 μM NAD co-factor, and the reaction mixture was incubated for 3 hours at room temperature. DMSO at a concentration of 0.5% was used as a negative control and a ‘no substrate’ control was used a positive control in the assay. Detection reagent was then added as per manufacturer's instructions, and the plate was subsequently incubated in the dark for 1 hour at room temperature, NADH generated was detected in the luminescence mode on the Envision Perkin Elmer plate reader. The IC50 values were determined using Dotmatics analysis software.

[2] = biological target: HSD17B1 (Homo sapiens (Human), UniProt P14061); assay: HSD17B1 enzymatic blocking assay; format: biochemical; conditions: 25 μM Estradiol, 500 μM NAD; read-out: Inhibition of HSD17B1 IC50
Outline: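 Activity followed as NADH formed on estradiol oxidation, read by NADH-Glo luminescence after 1 h detection in the dark at room temperature. Compounds preincubated with enzyme 30 min at room temperature; 0.5% DMSO and no-substrate controls. IC50 fitted from luminescence.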

[3] = Microsome stability assay, human liver microsomes; format: in vitro ADME; conditions: 1 μM compound, 0.5 mg/mL microsomal protein; for microsomal CLint at 1 μM / half-life at 1 μM / microsomal CLint at 1 h, 1 µM / half-life at 1 h, 1 µM: human, human liver microsomes, pooled, NADPH, 37° C.; for microsomal CLint at 1 μM / microsomal CLint at 1 h, 1 µM: read-out: Microsome Stability Human liver microsomes Cl; for half-life at 1 μM / half-life at 1 h, 1 µM: read-out: Microsome Stability Human liver microsomes T½
Outline: (§1)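 Compound at 1 μM incubated at 37° C with pooled human or mouse liver microsomes (0.5 mg/mL protein) plus NADPH regenerating system, sampled at 0–60 min; a 60-min no-NADPH incubation also included. Single replicate; LC/MS/MS disappearance from analyte/internal standard peak area ratios, without standard curve.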

[4] = biological target: HSD17B13 (Homo sapiens (Human), UniProt Q7Z5P4); assay: HSD17B13 enzymatic inhibition assay (150 nM or 50 nM HSD17B13); format: biochemical; conditions: 50 nM HSD17B13; read-out: Inhibition of 50 nM of HSD17B13 IC50
[5] = biological target: HSD17B2 (Homo sapiens (Human), UniProt P37059); assay: HSD17B2 enzymatic blocking assay; format: biochemical; conditions: 1.8 μM Estradiol, 650 μM NAD; read-out: Inhibition of HSD17B2 IC50
Outline: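 Mammalian-expressed enzyme at 2 ng/μL in 50 mM Tris-HCl pH 7.5 with detergents/BSA, preincubated 15 min at 20° C. with compound (10-point titration). Reaction with 1.8 μM estradiol and 650 μM NAD ran 45 min at 20° C.; NADH measured by NADH-Glo luminescence and IC50 derived.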

[6] = biological target: HSD17B4 (Homo sapiens (Human), UniProt P51659); assay: HSD17B4 enzymatic blocking assay; format: biochemical; conditions: 23.46 μM Estradiol, 1500 μM NAD; read-out: Inhibition of HSD17B4 IC50
Description: To screen compounds of the disclosure for their ability to block HSD17B4 function, an enzymatic blocking assay was performed. For the assay, HSD17B4 activity was measured by detecting NADH formation from oxidation of Estradiol using a NADH Glo luminescence assay (Promega, #Cat. No. G9062). Compounds of the disclosure were evaluated in a dose titration assay where the compounds were titrated at 10-point dose curve using an Echo-555 liquid handling dispenser. HSD17B4 (SEQ ID NO: 4, expressed in mammalian cells) was added at a final concentration of 2.5 ng/μL in a buffer containing 50 mM Tris-HCl, pH 7.5, Pluronic F-127 0.05%, Tween20 0.01%, BSA 0.01%, into a low volume white 384-well assay plate. Compounds were incubated with the enzyme for 15 min at 20° C. The assay reaction was then initiated by addition of 23.46 μM Estradiol substrate (Sigma, catalog #E2758-250MG, CAS: 50-28-2) and 1500 μM NAD co-factor, and the reaction mixture was incubated for 45 min at 20° C. DMSO at a concentration of 0.5% was used as a negative control and a ‘no substrate’ control was used a positive control in the assay. Detection reagent was then added as per manufacturer's instructions, and the plate was subsequently incubated in the dark for 1 hour at room temperature, NADH generated was detected in the luminescence mode on the Envision Perkin Elmer plate reader. The IC50 values were determined using Dotmatics analysis software.

[7] = Microsome stability assay, mouse liver microsomes; format: in vitro ADME; conditions: 1 μM compound, 0.5 mg/mL microsomal protein; for microsomal CLint at 1 μM / half-life at 1 μM / microsomal CLint at 1 h, 1 µM / half-life at 1 h, 1 µM: mouse, mouse liver microsomes, pooled, NADPH, 37° C.; for microsomal CLint at 1 μM / microsomal CLint at 1 h, 1 µM: read-out: Microsome Stability Mouse liver microsomes Cl; for half-life at 1 μM / half-life at 1 h, 1 µM: read-out: Microsome Stability Mouse liver microsomes T½
Outline: as §1

Sequence of HSD17B1 (P14061 other isoform, or with tags, fused parts or gaps): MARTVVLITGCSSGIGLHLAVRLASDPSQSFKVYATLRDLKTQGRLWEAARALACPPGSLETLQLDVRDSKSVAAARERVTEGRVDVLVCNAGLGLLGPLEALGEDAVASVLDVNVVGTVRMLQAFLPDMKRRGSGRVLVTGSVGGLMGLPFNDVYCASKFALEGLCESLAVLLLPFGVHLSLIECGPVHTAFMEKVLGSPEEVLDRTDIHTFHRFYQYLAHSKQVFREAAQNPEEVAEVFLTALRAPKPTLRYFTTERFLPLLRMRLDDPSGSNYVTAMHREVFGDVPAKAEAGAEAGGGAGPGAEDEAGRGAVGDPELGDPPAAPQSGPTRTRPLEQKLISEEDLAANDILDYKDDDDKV
Sequence of HSD17B13 (Q7Z5P4 other isoform, or with tags, fused parts or gaps): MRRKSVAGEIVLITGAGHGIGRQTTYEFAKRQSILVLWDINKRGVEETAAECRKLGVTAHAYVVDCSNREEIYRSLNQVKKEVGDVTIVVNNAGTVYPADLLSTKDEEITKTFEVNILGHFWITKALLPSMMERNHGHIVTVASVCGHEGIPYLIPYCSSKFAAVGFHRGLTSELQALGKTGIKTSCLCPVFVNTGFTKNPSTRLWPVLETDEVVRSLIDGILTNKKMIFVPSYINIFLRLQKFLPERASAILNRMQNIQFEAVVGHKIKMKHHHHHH
Sequence of HSD17B10 (Q99714 other isoform, or with tags, fused parts or gaps): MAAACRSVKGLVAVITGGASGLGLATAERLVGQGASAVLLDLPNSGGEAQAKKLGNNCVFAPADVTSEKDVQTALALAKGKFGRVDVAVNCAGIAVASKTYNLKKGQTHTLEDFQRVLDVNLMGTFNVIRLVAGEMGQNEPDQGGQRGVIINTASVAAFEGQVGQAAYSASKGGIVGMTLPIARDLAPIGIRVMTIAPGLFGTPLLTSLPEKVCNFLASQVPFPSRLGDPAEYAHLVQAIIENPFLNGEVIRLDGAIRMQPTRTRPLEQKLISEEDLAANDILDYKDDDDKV
Sequence of HSD17B2 (P37059 other isoform, or with tags, fused parts or gaps): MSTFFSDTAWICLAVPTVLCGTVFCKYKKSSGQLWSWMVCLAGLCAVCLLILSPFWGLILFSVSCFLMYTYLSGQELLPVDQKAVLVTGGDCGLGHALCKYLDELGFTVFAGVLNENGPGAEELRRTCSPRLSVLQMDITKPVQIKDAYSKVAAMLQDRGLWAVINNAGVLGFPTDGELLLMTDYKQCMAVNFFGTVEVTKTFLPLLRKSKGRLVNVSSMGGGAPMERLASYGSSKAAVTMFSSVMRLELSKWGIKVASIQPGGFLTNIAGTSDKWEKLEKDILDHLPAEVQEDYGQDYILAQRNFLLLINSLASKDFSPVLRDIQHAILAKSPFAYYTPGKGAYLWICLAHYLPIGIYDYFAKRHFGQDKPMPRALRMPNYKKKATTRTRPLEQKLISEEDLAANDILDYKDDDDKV
Sequence of HSD17B4 (P51659 other isoform, or with tags, fused parts or gaps): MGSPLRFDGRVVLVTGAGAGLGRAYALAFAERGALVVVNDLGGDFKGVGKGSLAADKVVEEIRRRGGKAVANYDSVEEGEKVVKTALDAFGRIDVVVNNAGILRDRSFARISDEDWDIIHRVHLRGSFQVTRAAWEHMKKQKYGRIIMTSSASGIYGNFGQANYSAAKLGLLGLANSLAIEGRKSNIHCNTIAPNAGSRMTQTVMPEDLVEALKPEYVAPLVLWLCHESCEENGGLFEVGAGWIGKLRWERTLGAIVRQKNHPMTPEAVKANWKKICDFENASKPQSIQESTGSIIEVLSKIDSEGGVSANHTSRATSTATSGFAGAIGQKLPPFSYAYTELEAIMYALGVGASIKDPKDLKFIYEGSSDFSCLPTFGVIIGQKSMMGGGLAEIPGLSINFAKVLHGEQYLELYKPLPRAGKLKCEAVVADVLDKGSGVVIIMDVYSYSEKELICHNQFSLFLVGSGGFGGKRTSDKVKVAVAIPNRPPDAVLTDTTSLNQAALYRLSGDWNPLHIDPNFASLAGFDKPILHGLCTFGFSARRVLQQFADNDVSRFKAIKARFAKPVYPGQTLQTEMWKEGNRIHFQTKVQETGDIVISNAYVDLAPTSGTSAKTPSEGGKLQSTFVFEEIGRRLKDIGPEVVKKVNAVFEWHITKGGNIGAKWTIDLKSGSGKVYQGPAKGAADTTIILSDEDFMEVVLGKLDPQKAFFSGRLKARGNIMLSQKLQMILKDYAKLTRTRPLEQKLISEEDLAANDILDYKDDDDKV

Compound | IC50 [1] [µM] | IC50 [2] [µM] | Microsome Stability Human liver microsomes % Remaining @60 min [3] [%] | microsomal CLint at 1 μM [3] [µL/min/mg] | half-life at 1 μM [3] [h] | IC50 [4] [µM] | IC50 [5] [µM] | IC50 [6] [µM] | Microsome Stability Mouse liver microsomes % Remaining @60 min [7] [%] | microsomal CLint at 1 μM [7] [µL/min/mg] | half-life at 1 μM [7] [h] | microsomal CLint at 1 h, 1 µM [3] [µL/min/mg] | half-life at 1 h, 1 µM [3] [h] | microsomal CLint at 1 h, 1 µM [7] [µL/min/mg] | half-life at 1 h, 1 µM [7] [h]
O=C(NC1c2ccc(Cl)cc2Oc2cc(Cl)ccc21)c1ccc(C(F)(F)F)[nH]c1=O [Compound 50, N-(3,6-dichloro-9H-xanthen-9-yl)-2-oxo-6-(trifluoromethyl)-1,2-dihydropyridine-3-carboxamide] | > 30 | 4.22 | 101.00 | < 9.6 | > 2.42 | 0.12 | 5.16 | > 100 | 97.70 | < 9.6 | > 2.42 |  |  |  | 
O=C(NC1c2ccc(Cl)cc2Oc2cccc(Cl)c21)c1ccc(C(F)(F)F)[nH]c1=O (stereo not shown) [Compound 51, N-(1,6-dichloro-9H-xanthen-9-yl)-2-oxo-6-(trifluoromethyl)-1,2-dihydropyridine-3-carboxamide] | > 30 | 4.55 | 44.00 |  |  | 0.23 | 8.71 | > 100 | 73.50 |  |  | 23 | 1 | 10.4 | 2.22

Results, then the molecule that gave them:

IC50 [1] [µM] | IC50 [2] [µM] | Microsome Stability Human liver microsomes % Remaining @60 min [3] [%] | microsomal CLint at 1 μM [3] [µL/min/mg] | half-life at 1 μM [3] [h] | IC50 [4] [µM] | IC50 [5] [µM] | IC50 [6] [µM] | Microsome Stability Mouse liver microsomes % Remaining @60 min [7] [%] | microsomal CLint at 1 μM [7] [µL/min/mg] | half-life at 1 μM [7] [h] | microsomal CLint at 1 h, 1 µM [3] [µL/min/mg] | half-life at 1 h, 1 µM [3] [h] | microsomal CLint at 1 h, 1 µM [7] [µL/min/mg] | half-life at 1 h, 1 µM [7] [h] | Compound
> 30 | 5.84 | 110.00 | < 9.6 | > 2.42 | 0.08 | 8.69 | > 100 | 125.00 | < 9.6 | > 2.42 |  |  |  |  | Cc1ccc2c(c1)Oc1cc(C)ccc1C2NC(=O)c1ccc(C(F)(F)F)[nH]c1=O [Compound 52, N-(3,6-dimethyl-9H-xanthen-9-yl)-2-oxo-6-(trifluoromethyl)-1,2-dihydropyridine-3-carboxamide]
> 30 | 2.07 | 72.40 |  |  | 0.02 | 16.1 | > 100 | 97.40 | < 9.6 | > 2.42 | 17.8 | 1.3 |  |  | Cc1ccc2c(c1)Oc1cc(Cl)ccc1C2NC(=O)c1ccc(C(F)(F)F)[nH]c1=O (stereo not shown) [Compound 138, N-(3-chloro-6-methyl-9H-xanthen-9-yl)-2-oxo-6-(trifluoromethyl)-1,2-dihydropyridine-3-carboxamide]
> 30 | 3.2 | 0.62 |  |  | 0.09 | 8.71 | 84.5 | 59.10 |  |  | 172 | 0.135 | 17.4 | 1.33 | Cc1ccc2c(c1)Oc1cccc(Cl)c1C2NC(=O)c1ccc(C(F)(F)F)[nH]c1=O (stereo not shown) [Compound 190, N-(1-chloro-6-methyl-9H-xanthen-9-yl)-2-oxo-6-(trifluoromethyl)-1,2-dihydropyridine-3-carboxamide]
